Measurements: ChEMBL document CHEMBL1201862, “PubChem BioAssay data set” (2004)
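48-hour exposure; five concentrations; linearly interpolated endpoints. The concentration for 50% growth inhibition is given as GI50.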 The source made the active and inactive calls. Cut-off read from the data, not from the text of the source: active = GI50 up to about 1.1 µM and inactive = higher.

What was measured:
Assay in all cases: NCI anticancer screen, dose series, 48 h
786-0 = system: 786-0
A498 = system: A498
A549 = system: A549
ACHN = system: ACHN
CAKI-1 = system: CAKI-1
COLO 205 = system: COLO 205
DLD-1 = system: DLD-1
DMS-114 = system: DMS-114
DMS-273 = system: DMS-273
EKVX = system: EKVX
HCT-116 = system: HCT-116
HCT-15 = system: HCT-15
HL-60 = system: HL-60
HOP-18 = system: HOP-18
HOP-62 = system: HOP-62
HOP-92 = system: HOP-92
HT-29 = system: HT-29
IGROV-1 = system: IGROV-1
K562 = system: K562
KM-20L2 = system: KM-20L2
KM12 = system: KM12
LXFL 529 = system: LXFL 529
M14 = system: M14
M19-MEL = system: M19-MEL
MOLT-4 = system: MOLT-4
Malme-3M = system: Malme-3M
NCI-H226 = system: NCI-H226
NCI-H23 = system: NCI-H23
NCI-H460 = system: NCI-H460
NCI-H522 = system: NCI-H522
OVCAR-3 = system: OVCAR-3
OVCAR-4 = system: OVCAR-4
OVCAR-5 = system: OVCAR-5
OVCAR-8 = system: OVCAR-8
RPMI-8226 = system: RPMI-8226
RXF 631 = system: RXF 631
SF-268 = system: SF-268
SF-295 = system: SF-295
SF-539 = system: SF-539
SK-MEL-28 = system: SK-MEL-28
SK-MEL-2 = system: SK-MEL-2
SK-MEL-5 = system: SK-MEL-5
SK-OV-3 = system: SK-OV-3
SN12C = system: SN12C
SNB-19 = system: SNB-19
SNB-75 = system: SNB-75
SNB-78 = system: SNB-78
SR = system: SR
SW-620 = system: SW-620
U-251 = system: U-251
UACC-257 = system: UACC-257
UO-31 = system: UO-31

Measured: GI50

COc1ccc2c(c1)[n+]([O-])c(-c1ccccc1Cl)c(N)[n+]2[O-]
inactive: 786-0 > 100 µM | A498 > 100 µM | A549 94.2 µM | ACHN 86.1 µM | CAKI-1 > 100 µM | COLO 205 18.5 µM | DLD-1 > 100 µM | DMS-114 32.8 µM | DMS-273 55.6 µM | EKVX > 100 µM | HCT-116 > 100 µM | HL-60 70.3 µM | HOP-18 > 100 µM | HOP-62 > 100 µM | HOP-92 > 100 µM | HT-29 62.5 µM | IGROV-1 79.1 µM | K562 99.1 µM | KM-20L2 38.8 µM | KM12 67.1 µM | LXFL 529 55.3 µM | M14 73.1 µM | M19-MEL 69.8 µM | MOLT-4 96.8 µM | Malme-3M > 100 µM | NCI-H226 > 100 µM | NCI-H23 37.2 µM | NCI-H460 54.5 µM | NCI-H522 16.9 µM | OVCAR-3 40.6 µM | OVCAR-4 > 100 µM | OVCAR-5 > 100 µM | OVCAR-8 > 100 µM | RPMI-8226 88.1 µM | RXF 631 37.4 µM | SF-268 74.3 µM | SF-295 > 100 µM | SF-539 > 100 µM | SK-MEL-28 > 100 µM | SK-MEL-2 > 100 µM | SK-MEL-5 39.8 µM | SK-OV-3 > 100 µM | SN12C > 100 µM | SNB-19 > 100 µM | SNB-75 75 µM | SNB-78 > 100 µM | SR > 100 µM | SW-620 61.7 µM | U-251 69.2 µM | UACC-257 36.6 µM | UO-31 99.8 µM
39.9 µM: HCT-15
